Results taken from PubChem BioAssay (NCI).
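Each compound was tested at five concentrations against cells in 96-well plates for 48 hours. TGI: concentration producing complete growth inhibition.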

Legend:
Assay in all cases: NCI-60 cell line screen, 48 h
HOP-62 NSCLC = test system: HOP-62 NSCLC
COLO 205 colon = test system: COLO 205 colon
SF-268 CNS = test system: SF-268 CNS
IGROV1 ovarian = test system: IGROV1 ovarian
SNB-75 CNS = test system: SNB-75 CNS
MCF7 breast = test system: MCF7 breast
SN12C renal = test system: SN12C renal
A549 NSCLC = test system: A549 NSCLC
CAKI-1 renal = test system: CAKI-1 renal
RXF 393 renal = test system: RXF 393 renal

Structure (SMILES) | TGI (HOP-62 NSCLC) | TGI (COLO 205 colon) | TGI (SF-268 CNS) | TGI (IGROV1 ovarian) | TGI (SNB-75 CNS) | TGI (MCF7 breast) | TGI (SN12C renal) | TGI (A549 NSCLC) | TGI (CAKI-1 renal) | TGI (RXF 393 renal)
CC(C)(C)c1cc(OCc2nnc3sc(Cc4ccccc4)nn23)c(Cl)cc1OCc1nnc2sc(Cc3ccccc3)nn12 | > 100 µM | > 100 µM | > 100 µM | 52.4 µM | 84.8 µM | 37.2 µM | > 100 µM | > 100 µM | > 100 µM | 38.8 µM
Oc1ccc2ccccc2c1OCc1nnc(CCCCCCCCc2nnc(COc3c(O)ccc4ccccc34)n2Nc2ccccc2)n1Nc1ccccc1 | 41.9 µM | 1.28 µM | > 100 µM | > 81.8 µM | > 100 µM | > 100 µM | > 100 µM | > 100 µM | > 56.5 µM | > 78 µM
Cc1cc2nc3ccccc3n2c2ccccc12 | > 10 µM | > 10 µM | > 10 µM | > 10 µM | > 10 µM | > 10 µM | > 10 µM | > 10 µM | > 10 µM | > 10 µM
Nc1ccc2c(=O)cc(-c3ccc(Br)s3)[nH]c2n1 | > 100 µM | > 22.1 µM | > 100 µM | > 100 µM | > 28.6 µM | > 100 µM | > 100 µM | > 44.8 µM | > 100 µM | > 100 µM
COc1ccc(-n2c(N)c(C#N)c(C#N)c2-c2ccco2)cc1 | > 100 µM | > 100 µM | > 100 µM | > 100 µM | > 100 µM | > 100 µM | > 100 µM | > 100 µM | > 100 µM | > 100 µM
NC1CCCCC1NCCNC1CCCCC1N (stereo not given) | > 100 µM | 30.8 µM | > 100 µM | > 100 µM | – | > 100 µM | > 100 µM | 87.6 µM | > 100 µM | > 100 µM
O=c1[nH]n(CCc2ccccc2CCl)c2ccc([N+](=O)[O-])cc12 | > 100 µM | > 100 µM | > 100 µM | > 100 µM | – | > 100 µM | > 100 µM | > 100 µM | > 100 µM | > 100 µM
Cc1ccc(N=C/C=C(\Nc2ccc(C)cc2)c2ccc3ccccc3c2)cc1 | 5.4 µM | 2.38 µM | 28.8 µM | 15.1 µM | 6.16 µM | 16.5 µM | – | 13.2 µM | 12.7 µM | 8.52 µM
CC(OP(=O)(O)O)C(N)C(=O)O (stereo not given) | > 100 µM | > 100 µM | > 100 µM | > 100 µM | > 100 µM | > 100 µM | > 100 µM | > 100 µM | > 100 µM | > 100 µM
Cc1ccc(S(=O)(=O)OCCC2CN(C(=O)OCc3ccccc3)C(C)(C)O2)cc1 (stereo not given) | – | > 100 µM | – | > 100 µM | – | 33.7 µM | > 100 µM | > 100 µM | > 100 µM | > 100 µM
O=c1cc(N2CCOCC2)n2c(ccc3ccccc32)n1 | > 100 µM | > 100 µM | > 100 µM | > 100 µM | > 100 µM | > 100 µM | > 100 µM | > 100 µM | > 100 µM | > 100 µM
CCOc1ccc2nc3nc(=O)[nH]c(C)c3c(NC(C)(CO)CO)c2c1 | > 100 µM | > 100 µM | > 100 µM | > 100 µM | > 100 µM | > 100 µM | > 100 µM | > 100 µM | > 100 µM | > 100 µM
COc1c(C)c(C/C=C(\C)CCCC(C)CCCC(C)CCCC(C)C)c(OC)c2ccccc12 (stereo not given) | – | > 100 µM | > 100 µM | > 100 µM | > 100 µM | > 100 µM | > 100 µM | > 100 µM | > 100 µM | > 100 µM
CC(=O)/C=C/c1ccccc1 | 93.9 µM | > 100 µM | > 100 µM | 64.9 µM | > 100 µM | > 100 µM | > 100 µM | > 100 µM | > 100 µM | > 100 µM
COC(=O)[C@@H](NS(=O)(=O)CC12CCC(CC1)C2(C)C)C(C)(C)C | – | > 100 µM | > 100 µM | > 100 µM | > 100 µM | > 100 µM | > 100 µM | > 100 µM | > 100 µM | > 100 µM
CCOC(=O)C1CCC(=O)N1C(=O)c1cccc(Cl)c1 (stereo not given) | > 100 µM | – | > 100 µM | > 100 µM | > 100 µM | > 100 µM | > 100 µM | > 100 µM | > 100 µM | > 100 µM
CCOC(=O)c1c(N2CCCC2)[nH]c(=O)c(C(c2ccc(N(C)C)cc2)c2c(O)c(C(=O)OCC)c(N3CCCC3)[nH]c2=O)c1O | > 100 µM | > 100 µM | > 100 µM | – | > 100 µM | > 100 µM | > 100 µM | > 100 µM | > 100 µM | > 100 µM
O=c1[nH]cc(N=Cc2cc(Cl)ccc2O)c(=O)[nH]1 | 53.7 µM | 75.7 µM | 47.3 µM | 52.6 µM | – | > 100 µM | > 100 µM | > 100 µM | > 100 µM | > 100 µM
COc1ccc(/C=c2\[nH]c3nc(=O)c(N4CCCCC4)c(N)n3c2=O)cc1 | – | > 100 µM | > 100 µM | > 100 µM | 78.7 µM | > 100 µM | > 100 µM | > 100 µM | > 100 µM | > 100 µM
C=CC(C)(C)/C=C/c1ccc(O)cc1 | > 100 µM | > 100 µM | > 100 µM | > 100 µM | – | > 100 µM | > 100 µM | > 100 µM | > 100 µM | > 100 µM
c1cc2cc3c4c5c(cc6ccc7cc8cc9c%10c8c8c7c6c5c8c5c%10c(c1C9N1CCOCCOCCOCCOCCOCC1)c2c45)C3 (stereo not given) | > 100 µM | > 100 µM | > 100 µM | > 100 µM | > 100 µM | > 100 µM | > 100 µM | > 100 µM | – | > 100 µM
CC(=O)OCC1OC(SC2=NC(=O)CS2)C(OC(C)=O)C(OC(C)=O)C1OC(C)=O (stereo not given) | > 100 µM | – | > 100 µM | > 100 µM | > 100 µM | > 100 µM | > 100 µM | > 100 µM | > 100 µM | > 100 µM
